# Data reported in US20170305857A1, “N-ACYLPIPERIDINE ETHER TROPOMYOSIN-RELATED KINASE INHIBITORS” (Pfizer Limited, priority 2014, published 2017).
# Target: T1, recombinant His-tagged cytoplasmic domains of TRKA receptor (NTRK1, PV3144, aa 441-796) (Homo sapiens, UniProt P04629)
# T1 construct: aa 441-796; His; purchased Invitrogen PV3144
# Test: Isolated TRK enzyme assay (HTRF KinEASE-TK, PV3144 TrkA enzyme assay)
# Type: biochemical
# Details: 4 nM enzyme, 40 uM ATP, 35 min, arithmetic mean where more than one reading
# Procedure: Isolated TRK Enzyme assays use the HTRF KinEASE-TK kit (Cisbio Cat #62TK0PEJ) with recombinant His-tagged cytoplasmic domains of TRKA receptor sourced from Invitrogen (see table below). This activity-assay measures the phosphorylation of tyrosine residues within a substrate from the HTRF kit which has been validated by Cisbio for a variety of tyrosine kinases including the TRK receptors.
# 0.5 mM stock solutions of test compounds are prepared and serially diluted in 100% DMSO. […] Greiner low volume black plates containing 0.2 ul of serially diluted compound, standard and HPE/ZPE are created using the Bravo nanolitre dispenser.
# 1× enzyme buffer is prepared from 5× Enzymatic Buffer from the Cisbio KinEASE TK kit using MilliQ water. The buffer is then supplemented with 10 mM MgCl and 2 mM DTT (both from Sigma).
# Following this preactivation step, 5 ul/well of enzyme+ATP mix is added using a Multidrop Micro to the assay plate, spotted with 0.2 ul 100% DMSO compound. This is left for 20 mins at room temperature before adding 5 ul of 2 uM TK-substrate-Biotin (from the Cisbio kit) diluted in 1× enzyme buffer (1 uM FAC) using the Multidrop Micro. The reaction is incubated at room temperature for the optimized assay reaction time (see table).
# After the Detection Reagent addition, plates are covered and incubated at room temperature for 60 minutes. […] Test compound data are expressed as percentage inhibition defined by HPE and ZPE values for each plate. Percentage inhibition in the presence of test compound is plotted against compound concentration on a log scale to determine an IC50 from the resultant sigmoid curve.
# Where more than one reading was taken, the arithmetic mean is presented.
# T1 sequence (P04629 441-796): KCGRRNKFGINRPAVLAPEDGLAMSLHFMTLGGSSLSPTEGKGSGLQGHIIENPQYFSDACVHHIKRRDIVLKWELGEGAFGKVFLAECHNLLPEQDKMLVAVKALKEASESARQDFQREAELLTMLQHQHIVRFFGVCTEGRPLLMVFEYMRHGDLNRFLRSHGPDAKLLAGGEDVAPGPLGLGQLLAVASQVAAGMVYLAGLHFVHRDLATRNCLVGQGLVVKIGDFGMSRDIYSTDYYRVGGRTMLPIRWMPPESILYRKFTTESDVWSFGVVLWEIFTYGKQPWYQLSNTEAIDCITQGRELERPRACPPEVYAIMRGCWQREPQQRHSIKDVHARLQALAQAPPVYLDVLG
row,SMILES,IC50
1,"NC(=O)c1cc(-c2cnn(C3COC3)c2)ccc1OC1CCN(C(=O)Cc2ccc(OC(F)(F)F)cc2)CC1 [Example 57, 5-[1-(oxetan-3-yl)-1H-pyrazol-4-yl]-2-[(1-{[4-(trifluoromethoxy)phenyl]acetyl}piperidin-4-yl)oxy]benzamide]",2.6 nM
2,"NC(=O)c1cc(-c2cnn(CCO)c2)ccc1OC1CCN(C(=O)Cc2ccc(OC(F)(F)F)cc2)CC1 [Example 58, 5-[1-(2-hydroxyethyl)-1H-pyrazol-4-yl]-2-[(1-{[4-(trifluoromethoxy)phenyl]acetyl}piperidin-4-yl)oxy]benzamide]",5.5 nM
3,"Cc1n[nH]c(C)c1-c1cnc(OC2CCN(C(=O)Cc3ccc(OC(F)(F)F)cc3)CC2)c(C(N)=O)c1 [Example 59, 5-(3,5-dimethyl-1H-pyrazol-4-yl)-2-[(1-{[4-(trifluoromethoxy)phenyl]acetyl}piperidin-4-yl)oxy]pyridine-3-carboxamide]",10 nM
4,"NC(=O)c1cc(-c2cc[nH]n2)cnc1OC1CCN(C(=O)Cc2ccc(SC(F)(F)F)cc2)CC1 [Example 60, 5-(1H-pyrazol-3-yl)-2-{[1-({4-[(trifluoromethyl)sulfanyl]phenyl}acetyl)piperidin-4-yl]oxy}pyridine-3-carboxamide]",10 nM
5,"CC(C)(CO)n1cc(-c2ccc(OC3CCN(C(=O)Cc4ccc(OC(F)(F)F)cc4)CC3)c(C(N)=O)c2)cn1 [Example 62, 5-[1-(1-hydroxy-2-methylpropan-2-yl)-1H-pyrazol-4-yl]-2-[(1-{[4-(trifluoromethoxy)phenyl]acetyl}piperidin-4-yl)oxy]benzamide]",4 nM
6,"NC(=O)c1cc(-c2ccc3c(c2)CNS3(=O)=O)ccc1OC1CCN(C(=O)Cc2ccc(OC(F)(F)F)cc2)CC1 [Example 63, 5-(1,1-dioxido-2,3-dihydro-1,2-benzothiazol-5-yl)-2-[(1-{[4-(trifluoromethoxy)phenyl]acetyl}piperidin-4-yl)oxy]benzamide]",6.7 nM
7,"C[C@@H](N)c1ccc(-c2ccc(OC3CCN(C(=O)Cc4ccc(OC(F)(F)F)cc4)CC3)c(C(N)=O)c2)cc1 [Example 64, 4′-[(1R)-1-aminoethyl]-4-[(1-{[4-(trifluoromethoxy)phenyl]acetyl}piperidin-4-yl)oxy]biphenyl-3-carboxamide]",2.8 nM
8,"CC(C)(N)c1ccc(-c2ccc(OC3CCN(C(=O)Cc4ccc(OC(F)(F)F)cc4)CC3)c(C(N)=O)c2)cc1 [Example 65, 4'-(2-aminopropan-2-yl)-4-[(1-{[4-(trifluoromethoxy)phenyl]acetyl}piperidin-4-yl)oxy]biphenyl-3-carboxamide]",3.5 nM
9,"C[C@H](N)c1ccc(-c2ccc(OC3CCN(C(=O)Cc4ccc(OC(F)(F)F)cc4)CC3)c(C(N)=O)c2)cc1 [Example 66, 4'-[(1S)-1-aminoethyl]-4-[(1-{[4-(trifluoromethoxy)phenyl]acetyl}piperidin-4-yl)oxy]biphenyl-3-carboxamide]",2.8 nM
10,"Cc1nc(OC2CCN(C(=O)Cc3ccc(OC(F)(F)F)cc3)CC2)c(C(N)=O)cc1-c1cn(C)cn1 [Example 69, 6-methyl-5-(1-methyl-1H-imidazol-4-yl)-2-[(1-{[4-(trifluoromethoxy)phenyl]acetyl}piperidin-4-yl)oxy]pyridine-3-carboxamide]",6.1 nM
11,"NC(=O)c1cc(-c2cn[nH]c2)cnc1O[C@@H]1CCN(C(=O)Cc2ccc(OC(F)(F)F)cc2)C[C@@H]1F [Example 70, 2-{[(3S,4R)-3-fluoro-1-{[4-(trifluoromethoxy)phenyl]acetyl}piperidin-4-yl]oxy}-5-(1H-pyrazol-4-yl)pyridine-3-carboxamide]",1.6 nM
12,"Cn1cc(-c2cnc(O[C@@H]3CCN(C(=O)Cc4ccc(OC(F)(F)F)cc4)C[C@@H]3F)c(C(N)=O)c2)cn1 [Example 71, 2-{[(3S,4R)-3-fluoro-1-{[4-(trifluoromethoxy)phenyl]acetyl}piperidin-4-yl]oxy}-5-(1-methyl-1H-pyrazol-4-yl)pyridine-3-carboxamide]",1.3 nM
13,"NC(=O)c1cc(-c2cn[nH]c2)cnc1O[C@H]1CCN(C(=O)Cc2ccc(OC(F)(F)F)cc2)C[C@H]1F [Example 72, 2-{[(3R,4S)-3-fluoro-1-{[4-(trifluoromethoxy)phenyl]acetyl}piperidin-4-yl]oxy}-5-(1H-pyrazol-4-yl)pyridine-3-carboxamide]",1.3 nM

# The remaining lines, values ahead:
row,IC50,SMILES
1,0.9 nM,"NC(=O)c1cc(-c2cn[nH]c2)ccc1O[C@@H]1CCN(C(=O)Cc2ccc(OC(F)(F)F)cc2)C[C@@H]1F [Example 73, 2-{[(3S,4R)-3-fluoro-1-{[4-(trifluoromethoxy)phenyl]acetyl}piperidin-4-yl]oxy}-5-(1H-pyrazol-4-yl)benzamide]"
2,0.9 nM,"Cn1cc(-c2ccc(O[C@@H]3CCN(C(=O)Cc4ccc(OC(F)(F)F)cc4)C[C@@H]3F)c(C(N)=O)c2)cn1 [Example 74, 2-{[(3S,4R)-3-fluoro-1-{[4-(trifluoromethoxy)phenyl]acetyl}piperidin-4-yl]oxy}-5-(1-methyl-1H-pyrazol-4-yl)benzamide]"
3,0.9 nM,"Cn1cc(-c2ccc(O[C@H]3CCN(C(=O)Cc4ccc(OC(F)(F)F)cc4)C[C@H]3F)c(C(N)=O)c2)cn1 [Example 75, 2-{[(3R,4S)-3-fluoro-1-{[4-{trifluoromethoxy)phenyl]acetyl}piperidin-4-yl]oxy}-5-(1-methyl-1H-pyrazol-4-yl)benzamide]"
4,1.2 nM,"NC(=O)c1cc(-c2cnn(C3CS(=O)(=O)C3)c2)ccc1O[C@H]1CCN(C(=O)Cc2ccc(OC(F)(F)F)cc2)C[C@H]1F [Example 76, 5-[1-(1,1-dioxidothietan-3-yl)-1H-pyrazol-4-yl]-2-{[(3R,4S)-3-fluoro-1-{[4-(trifluoromethoxy)phenyl]acetyl}pipertdin-4-yl]oxy}benzamide]"
5,1.6 nM,"Cc1nc(-c2ccc(O[C@H]3CCN(C(=O)Cc4ccc(OC(F)(F)F)cc4)C[C@H]3F)c(C(N)=O)c2)c[nH]1 [Example 77, 2-{[(3R,4S)-3-fluoro-1-{[4-(trifluoromethoxy)phenyl]acetyl}pipertdin-4-yl]oxy}-5-(2-methyl-1H-imidazol-4-yl)benzamide]"
6,2.6 nM,"NC(=O)c1cc(-c2cn[nH]c2)cnc1O[C@@H]1CCN(C(=O)Cc2ccc(OC3CC3)cn2)C[C@@H]1F [Example 78, 2-{[(3S,4R)-1-{[5-(cyclopropyloxy)pyridin-2-yl]acetyl}-3-fluoropiperidin-4-yl]oxy}-5-(1H-pyrazol-4-yl)pyridine-3-carboxamide]"
7,6.9 nM,"Cc1n[nH]c(C)c1-c1cnc(O[C@@H]2CCN(C(=O)Cc3ccc(OC4CC4)cn3)C[C@@H]2F)c(C(N)=O)c1 [Example 79, 2-{[(3S,4R)-1-{[5-(cyclopropyloxy)pyridin-2-yl]acetyl}-3-fluoropiperidin-4-yl]oxy}-5-(3,5-dimethyl-1H-pyrazol-4-yl)pyridine-3-carboxamide]"
8,9.9 nM,"NC(=O)c1cc(-c2cn[nH]c2)cnc1O[C@H]1CCN(C(=O)Cc2ccc(OC3CC3)cn2)C[C@@H]1F [Example 80, 2-{[(3S,4S)-1-{[5-(cyclopropyloxy)pyridin-2-yl]acetyl}-3-fluoropiperidin-4-yl]oxy}-5-(1H-pyrazol-4-yl)pyridine-3-carboxamide]"
9,2.5 nM,"NC(=O)c1cc(-c2c[nH]cn2)cnc1O[C@@H]1CCN(C(=O)Cc2ccc(OC(F)(F)F)cc2)C[C@@H]1F [Example 81, 2-{[(3S,4R)-3-fluoro-1-{[4-(trifluoromethoxy)phenyl]acetyl}piperidin-4-yl]oxy}-5-(1H-imidazol-4-yl)pyridine-3-carboxamide]"
10,4.2 nM,"NC(=O)c1cc(-c2c[nH]cn2)cnc1O[C@H]1CCN(C(=O)Cc2ccc(OC(F)(F)F)cc2)C[C@@H]1F [Example 82, 2-{[(3S,4S)-3-fluoro-1-{[4-(trifluoromethoxy)phenyl]acetyl}piperidin-4-yl]oxy}-5-(1H-imidazol-4-yl)pyridine-3-carboxamide]"
11,1.4 nM,"NC(=O)c1cc(-c2cn[nH]c2)ccc1O[C@@H]1CCN(C(=O)Cc2ccc(OC3CC3)cn2)C[C@@H]1F [Example 83, 2-{[(3S,4R)-1-{[5-(cyclopropyloxy)pyridin-2-yl]acetyl}-3-fluoropiperidin-4-yl]oxy}-5-(1H-pyrazol-4-yl)benzamide]"
12,4.4 nM,"NC(=O)c1cc(-c2cn[nH]c2)ccc1O[C@H]1CCN(C(=O)Cc2ccc(OC3CC3)cn2)C[C@@H]1F [Example 84, 2-{[(3S,4S)-1-{[5-(cyclopropyloxy)pyridin-2-yl]acetyl}-3-fluoropiperidin-4-yl]oxy}-5-(1H-pyrazol-4-yl)benzamide]"
13,1.7 nM,"NC(=O)c1cc(-c2cn[nH]c2)ncc1O[C@@H]1CCN(C(=O)Cc2ccc(OC(F)(F)F)cc2)C[C@@H]1F [Example 85, 5-{[(3S,4R)-3-fluoro-1-{[4-(trifluoromethoxy)phenyl]acetyl}piperidin-4-yl]oxy}-2-(1H-pyrazol-4-yl)pyridine-4-carboxamide]"
14,10.5 nM,"NC(=O)c1cc(-c2cn[nH]c2)ncc1O[C@H]1CCN(C(=O)Cc2ccc(OC(F)(F)F)cc2)C[C@@H]1F [Example 86, 5-{[(3S,4S)-3-fluoro-1-{[4-(trifluoromethoxy)phenyl]acetyl}piperidin-4-yl]oxy}-2-(1H-pyrazol-4-yl)pyridine-4-carboxamide]"
